Measured values as given in PubChem BioAssay (NCI).
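Dose response: 5 concentrations. Exposure: 48 h. Format: 96-well plates. Endpoint: linear interpolation; highest concentration if not reached. TGI: total growth inhibition.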

Tests used:
Assay in all cases: NCI-60 cell line screen, 48 h
[1] = system: OVCAR-8 ovarian
[2] = system: SK-MEL-28 melanoma
[3] = system: MDA-MB-435
[4] = system: IGROV1 ovarian
[5] = system: RXF 393 renal
[6] = system: HL-60(TB) leukemia
[7] = system: RPMI-8226 leukemia
[8] = system: OVCAR-5 ovarian
[9] = system: TK-10 renal
[10] = system: HS 578T breast
[11] = system: EKVX NSCLC
[12] = system: DU-145 prostate
[13] = system: SR leukemia
[14] = system: SK-OV-3 ovarian
[15] = system: MDA-N
[16] = system: ACHN renal
[17] = system: MALME-3M melanoma

Row | Compound | TGI [1] | TGI [2] | TGI [3] | TGI [4] | TGI [5] | TGI [6] | TGI [7] | TGI [8] | TGI [9] | TGI [10] | TGI [11] | TGI [12] | TGI [13] | TGI [14] | TGI [15] | TGI [16] | TGI [17]
1 | COC(=O)/C(C)=N/NC(=S)SC | > 100 µM | > 100 µM | > 100 µM | > 100 µM | 97 µM | 28.5 µM | > 100 µM | > 100 µM | > 100 µM | > 100 µM | > 100 µM | > 100 µM | > 100 µM | > 100 µM | > 100 µM | > 100 µM | 
2 | CC(=O)O[C@H]1C(=O)[C@@]2(C)[C@H]([C@H](OC(=O)c3ccccc3)[C@]3(O)C[C@H](OC(=O)[C@H](O)[C@@H](NC(=O)c4ccc(N)cc4)c4ccccc4)C(C)=C1C3(C)C)[C@]1(OC(C)=O)CO[C@@H]1C[C@@H]2O | > 50 µM | > 50 µM |  | > 50 µM | > 50 µM | 0.318 µM | < 0.005 µM | > 50 µM | > 50 µM | 0.0126 µM | > 50 µM | 31.4 µM | > 41.9 µM |  | < 0.005 µM | > 50 µM | 
3 | C1C2CC3CC1CC(c1nn4c(C56CC7CC(CC(C7)C5)C6)nnc4s1)(C2)C3 |  | > 100 µM | > 100 µM | > 100 µM | > 100 µM | > 100 µM | > 100 µM | > 100 µM | > 100 µM | > 100 µM | > 100 µM | > 100 µM | > 100 µM | > 100 µM | > 100 µM | > 100 µM | > 100 µM
4 | OCC1OC(NC(=S)NCCC(F)(F)C(F)(F)C(F)(F)C(F)(F)C(F)(F)C(F)(F)F)C(O)C(O)C1O (stereo unspecified) |  | > 100 µM | > 100 µM | > 100 µM | > 100 µM | > 100 µM | > 100 µM | > 100 µM | > 100 µM | > 100 µM |  | > 100 µM | > 100 µM | > 100 µM | > 100 µM | > 100 µM | > 100 µM
5 | CC12CCCC(C(=O)O)(C1)[C@H](C(C)(C)C(=O)O)CC2 (stereo partly specified) | > 100 µM | > 100 µM | > 100 µM | > 100 µM |  | > 100 µM | > 100 µM | > 100 µM | > 100 µM | > 100 µM | > 100 µM | > 100 µM | > 100 µM | > 100 µM | > 100 µM | > 100 µM | > 100 µM
6 | COc1cc2c(cc1OCCCNC(=O)c1cc3ccccc3[nH]1)N=C[C@@H]1CCCN1C2=O | 3.64 µM | 1.65 µM | 0.716 µM | 0.74 µM |  |  | > 100 µM | > 33.3 µM | > 47.5 µM | 0.562 µM | 5.68 µM | > 34.3 µM | > 100 µM | > 60.2 µM | 1.87 µM | > 100 µM | 
7 | NC(CSS(=O)(=O)O)=NC1CC2CCC1C2 (stereo unspecified) | > 100 µM | > 100 µM | > 100 µM | > 100 µM | > 100 µM | > 100 µM | > 100 µM |  | > 100 µM | > 100 µM |  | > 100 µM | > 100 µM | > 100 µM | > 100 µM | > 100 µM | > 100 µM
